{"source": "patent US8709718B1", "about": "“Method of treating lung cancer” (Max-Planck-Gesellschaft zur Forderung der Wissenschaften …, priority 2011, dated 2014)", "key": {"[1]": {"test_system": "83 lung cancer cell lines", "experiment": "Cell-line screening, viability by cellular ATP content (CellTiter-Glo)", "assay_type": "cell-based"}, "H1581 cells": {"test_system": "H1581 cells", "experiment": "Xenograft mouse model, FGFR1-amplified H1581 cells", "assay_type": "in vivo", "conditions": "100 mg/kg twice a day, oral gavage, mice engrafted with FGFR1-amplified cells", "experimental": "(§1) All animal procedures were approved by the local animal protection committee and the local authorities. 5*10^6 tumor cells were injected subcutaneously into male nude mice."}, "FGFR1": {"target": "FGFR1 (Homo sapiens, UniProt P11362)", "sequence (P11362 22-822)": "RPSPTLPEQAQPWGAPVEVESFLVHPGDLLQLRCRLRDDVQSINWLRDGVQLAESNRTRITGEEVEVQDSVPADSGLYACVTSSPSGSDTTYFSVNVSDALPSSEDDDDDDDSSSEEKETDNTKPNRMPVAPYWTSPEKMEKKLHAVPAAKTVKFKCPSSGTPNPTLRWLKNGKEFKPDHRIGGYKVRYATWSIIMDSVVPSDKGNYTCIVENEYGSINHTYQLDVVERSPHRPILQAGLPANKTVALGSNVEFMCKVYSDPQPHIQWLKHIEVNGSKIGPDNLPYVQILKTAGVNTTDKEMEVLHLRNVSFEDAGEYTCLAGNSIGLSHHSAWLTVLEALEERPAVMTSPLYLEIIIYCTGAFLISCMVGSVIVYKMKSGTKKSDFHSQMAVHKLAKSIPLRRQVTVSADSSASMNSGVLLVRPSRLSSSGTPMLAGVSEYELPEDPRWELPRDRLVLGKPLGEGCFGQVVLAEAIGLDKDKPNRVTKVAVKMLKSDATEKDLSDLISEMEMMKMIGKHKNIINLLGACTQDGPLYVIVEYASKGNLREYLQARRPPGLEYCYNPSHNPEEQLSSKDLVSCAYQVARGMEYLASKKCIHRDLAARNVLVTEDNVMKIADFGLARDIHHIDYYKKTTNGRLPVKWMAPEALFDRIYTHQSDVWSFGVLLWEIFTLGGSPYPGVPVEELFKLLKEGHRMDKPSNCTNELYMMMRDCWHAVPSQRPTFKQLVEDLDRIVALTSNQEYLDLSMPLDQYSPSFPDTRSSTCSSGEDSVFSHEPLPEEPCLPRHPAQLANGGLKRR", "conditions": "FGFR1 one of only two of 105 kinases"}, "[2]": {"test_system": "phospho-ERK, phospho-AKT in FGFR1-amplified tumors", "experiment": "Immunohistochemical staining of explanted tumors", "assay_type": "in vivo, mice", "conditions": "end of treatment", "text": "Mice bearing FGFR1-amplified tumors were sacrificed at the end of treatment. Tumors were exgrafted and embedded in paraffin. […] Antibodies recognizing pAKT, pERK, AKT and ERK were obtained from Cell signaling."}, "[3]": {"test_system": "H1975 (FGFR1 wild type) cells", "experiment": "Xenograft mouse model, EGFR-mutant H1975 cells", "assay_type": "in vivo, mice", "conditions": "xenografted EGFR-mutant H1975 cells", "experimental": "as §1"}, "[4]": {"test_system": "FGFR1-amplified cell lines", "experiment": "Soft-agar colony formation assay", "assay_type": "cell-based", "conditions": "FGFR1-amplified cells", "experimental": "Cells were suspended in growth media containing 10% FCS and 0.6% agar and plated in triplicate on 50 μl solidified growth medium (10% FCS; 1.0% agar). Growth medium containing indicated compound concentrations was added on top. Colonies were analyzed using the Scanalyzer imaging system (Lemnatec, Germany)."}, "[5]": {"test_system": "FGFR1 amplified cell line H520", "experiment": "FGFR1 phosphorylation by immunoprecipitation", "assay_type": "cell-based", "conditions": "H520, 1 μM", "experimental": "For the detection of FGFR1 phosphorylation, whole-cell lysates (0.5-1 mg) in NP40 lysis buffer was incubated with agarose A/G Plus preconjugated with the FGFR1 antibody. Immunoprecipitates were washed in NP40 lysis buffer, boiled in sample buffer, and subjected to SDS-PAGE followed by immunoblotting using an anti phospho-tyrosine residues antibody to detect specific phosphorylation of FGFR1."}, "[6]": {"test_system": "lung cancer cells carrying amplified FGFR1", "experiment": "Apoptosis by Annexin V/PI flow cytometry", "assay_type": "cell-based", "conditions": "1.0 μM, 72 hours, versus DMSO; specifically in FGFR1-amplified cells; p=0.008", "experimental": "Finally the cells were analyzed on a FACS Canto FlowCytometer (BD Biosciences)."}, "[7]": {"experiment": "Pharmacokinetics of PD173074 in mice", "assay_type": "in vivo", "experimental": "Pharmacokinetic data were created by taking blood-samples from male nude mice by puncture of the tail-vein under isoflurane anesthesia. […] All blood samples were centrifuged; the blood plasma-containing supernatant was extracted and stored at -20° C. Analytic samples were prepared from the blood plasma by acetonitrile extraction with an internal standard of 1 μM griseofulvin. […] Pharmacokinetic data was evaluated with WinNonlin Software (Pharsight)."}, "[8]": {"test_system": "PDGFRA- and FGFR1-amplified cell line H1703", "conditions": "96 h of compound treatment, increasing concentrations", "experimental": "Viability was determined after 96 hours by measuring cellular ATP content (CellTiter-Glo, Promega). Half-maximal inhibitory concentrations (GI50) were determined using the statistical data analysis software “R” with the package “ic50”."}, "[9]": {"test_system": "FGFR1-amplified cells (H1581, H520)", "experiment": "Immunoblotting of phosphorylated FGFR and downstream molecules", "assay_type": "cell-based", "text": "(§2) The following antibodies were used for immunoblotting: β-actin (MPBioscience), phospho-FGFR(Y653, Y654), pFRS2 (Tyr196), p-AKT (S473), pS6, S6, AKT, p-ERK, ERK (Cell Signaling Technology), total-FGFR1 (Santa Cruz), anti-rabbit-HRP, anti-mouse-HRP-antibody (Millipore)."}, "[10]": {"test_system": "EGFR-mutant cell line HCC827", "experiment": "Immunoblotting of phosphorylated FGFR and downstream molecules", "assay_type": "cell-based", "text": "as §2"}, "[11]": {"test_system": "FGFR1-amplified lung cancer cells expressing FGFR1^V561M", "conditions": "0.5 μM and 1.0 μM", "text": "The V561M mutation was introduced into FGFR1 cloned in pBABE-Puro by site-directed mutagenesis. Replication-incompetent retroviruses were produced by contransfection with the pCL-ampho plasmid in HEK 293T cells. Hairpin shRNA targeting the different genes were ordered from Sigma. Replication-incompetent lentiviruses were produced from pLKO.1-Puro based vectors by contransfection with Δ8.9 and pMGD2 in 293T cells as described previously (Sos et al., Cancer Res 70, 868-874 (2010)). After transduction cells were selected with puromycin (1.5 μg/ml) and five days after selection cells were counted using trypan blue."}}}
{"smiles": "CCN(CC)CCCCNc1ncc2cc(-c3cc(OC)cc(OC)c3)c(NC(=O)NC(C)(C)C)nc2n1", "note": "[PD173074]", "values": [{"measurement": "sensitivity of FGFR1-amplified cell line H520", "setting": "[1]; H520, derived from a squamous-cell lung cancer patient", "value": "sensitive"}, {"measurement": "GI50", "setting": "[1]; four of the 83 lung cancer cell lines tested, viability after 96 hours, read-out: half-maximal growth inhibitory concentration (GI50)", "value": "< 1000", "unit": "nM"}, {"measurement": "growth inhibition", "setting": "[1]; specifically in lung cancer cells carrying amplified FGFR1, p=0.0002", "value": "inhibited growth"}, {"measurement": "tumor size", "setting": "H1581 cells", "value": "tumor shrinkage"}, {"measurement": "kinase inhibition", "setting": "FGFR1", "value": "strongly inhibited"}, {"measurement": "levels of phospho-AKT in explanted tumors", "setting": "[2]", "value": "not of phospho-AKT"}, {"measurement": "levels of phospho-ERK in explanted tumors", "setting": "[2]", "value": "reduction in the levels of phospho-ERK"}, {"measurement": "tumor regression", "setting": "[3]", "value": "did not show signs of regression"}, {"measurement": "colony formation in soft agar", "setting": "[4]", "value": "decreased colony formation"}, {"measurement": "phosphorylation of FGFR1 (phosphotyrosine after immunoprecipitation)", "setting": "[5]", "value": "leads to dephosphorylation of FGFR1"}, {"measurement": "induction of apoptosis", "setting": "[6]", "value": "induced apoptosis"}, {"measurement": "exposure", "setting": "[7]; 50 mg/kg twice a day compared to 100 mg/kg twice a day", "value": "only a minimal exposure"}, {"measurement": "half-life in vivo", "setting": "[7]; mice", "value": "short half-life"}, {"measurement": "activity on viability of H1703 cells", "setting": "[8]", "value": "not active"}, {"measurement": "levels of phosphorylated FGFR1", "setting": "[9]", "value": "reduced the levels of phosphorylated FGFR1"}, {"measurement": "phosphorylation of ERK", "setting": "[9]", "value": "inhibition of phosphorylation of ERK"}, {"measurement": "levels of phosphorylated FGFR1 and FRS2", "setting": "[10]", "value": "not in the EGFR-mutant cell line HCC827"}, {"measurement": "cytotoxicity and dephosphorylation of FGFR on expression of FGFR1^V561M", "setting": "[11]", "value": "abolished"}]}
